In patent US11578072B2, “Spiro-lactam NMDA receptor modulators and uses thereof” (Aptinyx Inc., priority 2018, dated 2023):

How the values were obtained:
Sprague Dawley rats [1] = experiment: Porsolt forced swim test; format: in vivo
Method: A non-clinical in vivo pharmacology study (Porsolt assay) was performed to measure antidepressant-like effects. The study allowed for the evaluation of the effects of each compound on the Porsolt forced swim test as assessed by the rats' response (reduced floating time) during a 5-minute swimming test.
(§1) Male 2-3 month old Sprague Dawley rats were used (Harlan, Indianapolis, Ind.). Rats were housed in Lucite cages with aspen wood chip bedding, maintained on a 12:12 light:dark cycle (lights on at 5 AM), and given ad libitum access to Purina lab chow (USA) and tap water throughout the study.
The Porsolt forced swim test adapted for use in rats was performed as described by Burgdorf et al., (The long-lasting antidepressant effects of rapastinel (GLYX-13) are associated with a metaplasticity process in the medial prefrontal cortex and hippocampus. Neuroscience 308:202-211, 2015). Animals were placed in a 46 cm tall×20 cm in diameter clear glass tube filled to 30 cm with tap water (23±1° C.) for 15 min on the first day (habituation) and 5 min on the subsequent test day. Animals were tested 1 h or 1 week post-dosing with the test compounds or vehicle control (0.5% sodium carboxymethyl cellulose in 0.9% sterile saline). Animals received a 15 min habituation session 1 day before the first 5 min test. Water was changed after every other animal. Animals were videotaped, and floating time as defined as the minimal amount of effort required to keep the animals head above water was scored offline by a blinded experimenter with high inter-rater reliability (Pearson's r>0.9).

[2] = Microsomal stability (Rat); format: in vitro ADME; settings: rat microsomes, after 60 minutes
Method: Microsomal stability of disclosed compounds was investigated. The following table indicates the percent of compound remaining after 60 minutes.

Plasma stability (Human) = format: in vitro ADME; settings: after 60 minutes
Method: Plasma stability of disclosed compounds was investigated. The following table indicates the percent of compound remaining after 60 minutes.

Sprague Dawley rats [3] = experiment: Bennett nerve injury assay (mechanical analgesia, paw withdrawal threshold); format: in vivo
Method: The Bennett model of mechanical analgesia is used to assess the analgesic effects of compounds as measured by paw withdrawal threshold. Bennett G J, Xie Y K, “A peripheral mononeuropathy in rat that produces disorders of pain sensation like those seen in man,” Pain 33:87-107, 1988. […] Vehicle animals receive the surgery and then receive vehicle rather than test compound. Animals were tested 1 hr, 24 h and 1 wk post-test compound or vehicle administration.
as §1, with “used. Harlan was the supplier for all studies.” for “used (Harlan, Indianapolis, Ind.).”
Rats were anesthetized using inhaled isoflurane (2.5%). Sciatic nerve chronic constriction nerve injury surgery was performed as previously described (Bennett and Xie, 1988). An incision (˜1.5 cm in length) was made with a scalpel blade dorsally through skin on the right hind limb, parallel and posterior to femur. Using a small pointed hemostat, the biceps femoris and gluteus superficialis muscles were separated. Using curved blunt forceps, the common sciatic nerve was isolated and exposed. For the mechanical analgesia studies, the whole sciatic nerve was ligated. Using hemostats/forceps and chromic gut (5-0), the nerve was loosely ligated with a square knot; 3 ligatures, 1 mm apart were placed on the nerve. […] Testing occurred approximately 2 weeks post-surgery.
During testing, rats were acclimated to the surface of a suspended wire mesh grid (1 cm×1 cm, with the wire being 0.3 cm in diameter) for 15-20 min. Starting from the smallest, each Von Frey filament was pressed perpendicularly to the plantar surface of the affected (ipsilateral) hind paw until slightly bent and then held for 6 second. If an obvious hind paw withdrawal or a flinching behavior immediately after the withdrawal of the filament was not observed, the next larger filament was used in the same manner. In case of a response, a lower filament was used. This was repeated until six responses were collected.
For all studies, animals were baselined prior to study start to test for allodynia (defined as a paw withdrawal threshold under 5). A subset of animals was tested with gabapentin (150 mg/kg, PO) to ensure at least 50% analgesia. Once it was confirmed animals were ready for study initiation, animals were balanced across groups. All study investigators were blind to treatment conditions. Animals were dosed with 0.1, 1 or 10 mg/kg of test compound via oral gavage (PO), control sets of animals were dosed with gabapentin (150 mg/kg, PO) or vehicle (0.5% Na-CMC in 0.9% sterile saline, PO). Testing occurred 1 h post-dosing with animals retested 24 hrs and 1 week post-dosing. The percent analgesia calculations for each animal were made using the following equation: % analgesia=[(log(x)−y)/((log (z)−y)]*100, where x=the paw withdrawal threshold for the drug-treated animal in grams, y=the average of the log(x) values for the vehicle treated group, and z=the paw withdrawal threshold for naïve animals in grams (historical value of 15 used). The results for Compound AD, where the percentage of analgesia is measured at 1 hour, 24 hours, and 1 week after compound administration are as follows: for 0.1 mg/kg dose: 38.7% at 1 h, 34.5% at 24 h, and 19.7% at 1 wk; for 1 mg/kg dose: 24.1% at 1 h, 26.5% at 24 h, and 13.2% at 1 wk; and for 10 mg/kg dose: 61.2% at 1 h, 45.1% at 24 h, and 39.5% at 1 wk.

SMILES: CC(C)C(=O)N1CCC2(CCCNC2=O)CC1 [Compound AD, 9-isobutyryl-2,9-diazaspiro[5.5]undecan-1-one]
- % reduction in float time (Sprague Dawley rats [1]; 0.00001 mg/kg, 1 wk post-dose): 1%
- Significance vs. vehicle (Sprague Dawley rats [1]; 0.00001 mg/kg, 1 wk post-dose): No
- % reduction in float time (Sprague Dawley rats [1]; 0.00001 mg/kg, 1 h post-dose): 25%
- Significance vs. vehicle (Sprague Dawley rats [1]; 0.00001 mg/kg, 1 h post-dose): No
- % reduction in float time (Sprague Dawley rats [1]; 0.001 mg/kg, 1 wk post-dose): 41%
- Significance vs. vehicle (Sprague Dawley rats [1]; 0.001 mg/kg, 1 wk post-dose): No
- % reduction in float time (Sprague Dawley rats [1]; 0.001 mg/kg, 1 h post-dose): 47%
- Significance vs. vehicle (Sprague Dawley rats [1]; 0.001 mg/kg, 1 h post-dose): Yes
- % reduction in float time (Sprague Dawley rats [1]; 0.1 mg/kg, 1 wk post-dose): 39%
- Significance vs. vehicle (Sprague Dawley rats [1]; 0.1 mg/kg, 1 wk post-dose): No
- % reduction in float time (Sprague Dawley rats [1]; 0.1 mg/kg, 1 h post-dose): 53%
- Significance vs. vehicle (Sprague Dawley rats [1]; 0.1 mg/kg, 1 h post-dose): Yes
- % reduction in float time (Sprague Dawley rats [1]; 10.0 mg/kg, 1 wk post-dose): 37%
- Significance vs. vehicle (Sprague Dawley rats [1]; 10.0 mg/kg, 1 wk post-dose): No
- % reduction in float time (Sprague Dawley rats [1]; 10.0 mg/kg, 1 h post-dose): 39%
- Significance vs. vehicle (Sprague Dawley rats [1]; 10.0 mg/kg, 1 h post-dose): Yes
- Microsomal (Rat): percent of compound remaining [2]: 100%
- Plasma (Human): percent of compound remaining (Plasma stability (Human)): 98%
- % analgesia (Sprague Dawley rats [3]; 0.1 mg/kg PO, 1 wk): 19.7%
- % analgesia (Sprague Dawley rats [3]; 0.1 mg/kg PO, 1 h): 38.7%
- % analgesia (Sprague Dawley rats [3]; 0.1 mg/kg PO, 24 h): 34.5%
- % analgesia (Sprague Dawley rats [3]; 1 mg/kg PO, 1 wk): 13.2%
- % analgesia (Sprague Dawley rats [3]; 1 mg/kg PO, 1 h): 24.1%
- % analgesia (Sprague Dawley rats [3]; 1 mg/kg PO, 24 h): 26.5%
- % analgesia (Sprague Dawley rats [3]; 10 mg/kg PO, 1 wk): 39.5%
- % analgesia (Sprague Dawley rats [3]; 10 mg/kg PO, 1 h): 61.2%
- % analgesia (Sprague Dawley rats [3]; 10 mg/kg PO, 24 h): 45.1%
